{
  "source": "patent US20250064799A1",
  "about": "“ORAL FORMULATIONS OF LEVOSIMENDAN FOR TREATING PULMONARY HYPERTENSION WITH HEART FAILURE WITH PRESERVED EJECTION FRACTION” (Tenax Therapeutics, Inc., priority 2021, published 2025)",
  "key": {"[1]": {"system": "phosphodiesterase-3 (PDE3)", "conditions": "cited from earlier work"}, "[2]": {"conditions": "heart failure subjects; cited from earlier work"}, "PDE4": {"system": "PDE4", "conditions": "cited from earlier work"}, "[3]": {"system": "whole cardiomyocytes and isolated contractile apparatus preparations", "conditions": "cited from earlier work"}, "[4]": {"test": "OR-1896 plasma concentration, I.V. to oral transition pharmacokinetic study", "type": "in vivo, human", "conditions": "individual patients", "text": "FIGS. 6A-6W: Pharmacokinetic Data from the Levosimendan I.V. to Oral Transition Study. […] FIGS. 6D-6U show patient OR-1896 plasma concentrations (ng/ml, y-axis) for each patient in the I.V. to oral transition study. The respective patient number is indicated above each graph. FIG. 6V: Individual Patient Change in 6-minute walk distance (6MWD) at Week 6 (y-axis) by OR-1896 plasma concentration (Week 6) (x-axis). FIG. 6W: Individual Patient Change in Heart Rate (Week 0 to Week 6) (y-axis) by OR-1896 plasma concentration (Week 6) (x-axis)."}, "patients with PH-HFpEF": {"system": "patients with PH-HFpEF", "conditions": "in vivo; cited from earlier work"}, "[5]": {"system": "HFpEF, HFrEF, or PH-HFpEF patients", "conditions": "empagliflozin alone; cited from earlier work"}, "[6]": {"system": "patients with left heart disease", "conditions": "in vivo; cited from earlier work"}, "PH-HFpEF patients [7]": {"system": "PH-HFpEF patients", "conditions": "in vivo; cited from earlier work"}, "patients with HFpEF": {"system": "patients with HFpEF", "conditions": "long term treatment, 216 patients; cited from earlier work"}, "PH-HFpEF patients [8]": {"system": "PH-HFpEF patients", "conditions": "after 12 weeks, 52 patients; cited from earlier work"}, "HFpEF patients [9]": {"system": "HFpEF patients", "conditions": "inhaled 3 times a day for 4 weeks; cited from earlier work"}, "HFpEF patients [10]": {"system": "HFpEF patients", "conditions": "in vivo; cited from earlier work"}},
  "note": "Where “and” joins values, the source holds several entries; their conditions need not be identical. Equal entries are not always repeated.",
  "data": [
    {"smiles": "CC(=O)Nc1ccc(C2=NNC(=O)C[C@H]2C)cc1", "note": "[OR-1896, (R)—N-(4-(4-methyl-6-oxo-1,4,5,6-tetraihydropyridazin-3-yl)phenyl) acetamide]", "values": [
      {"measurement": "potency in inhibition of PDE3 relative to levosimendan", "setting": "[1]", "value": "profoundly less potent"},
      {"measurement": "half-life", "setting": "[2]", "value": "70 to 80", "unit": "h"},
      {"measurement": "potency in inhibition of PDE4 relative to levosimendan", "setting": "PDE4", "value": "profoundly less potent"},
      {"measurement": "inotropic effects relative to levosimendan", "setting": "[3]", "value": "equipotent"},
      {"measurement": "OR-1896 Plasma concentration, Week 6", "setting": "[4]; daily 3 mg oral levosimendan", "value": "13.0 ng/mL and 8.44 ng/mL and 4.04 ng/mL and 8.73 ng/mL and 29.0 ng/mL and 8.15 ng/mL and 1.97 ng/mL and 13.4 ng/mL and 34.1 ng/mL and 7.72 ng/mL and 22.9 ng/mL and 16.5 ng/mL and 12.7 ng/mL and 21.9 ng/mL and 12.3 ng/mL and 5.15 ng/mL"},
      {"measurement": "OR-1896 Plasma concentration, Week 4", "setting": "[4]; oral levosimendan titration", "value": "8.86 ng/mL and 6.14 ng/mL and 6.28 ng/mL and 1.39 ng/mL and 12.6 ng/mL and 11.6 ng/mL and 32.9 ng/mL and 7.96 ng/mL and 13.1 ng/mL and 6.50 ng/mL and 5.90 ng/mL"},
      {"measurement": "OR-1896 Plasma concentration, Week 8", "setting": "[4]; oral levosimendan, patients titrated at Week 6", "value": "3.47 ng/ml and 38.7 ng/ml and 69.9 ng/ml and 2.93 ng/ml and 25.5 ng/ml (2×) and 10.9 ng/ml"},
      {"measurement": "OR-1896 Plasma concentration, Week 0", "setting": "[4]; weekly I.V. levosimendan", "value": "4.46 ng/mL and 2.22 ng/mL and 0.730 ng/mL and 0.197 ng/mL and 12.2 ng/mL and 3.16 ng/mL and 0.787 ng/mL and 6.89 ng/mL and 36.1 ng/mL and 2.11 ng/mL and 0.00 ng/mL and 6.32 ng/mL and 2.81 ng/mL and 4.86 ng/mL and 3.77 ng/mL and 1.19 ng/mL"}
    ]},
    {"smiles": "COc1ccccc1Oc1c(NS(=O)(=O)c2ccc(C(C)(C)C)cc2)nc(-c2ncccn2)nc1OCCO", "note": "[bosentan]", "values": [
      {"measurement": "clinical outcomes versus placebo", "setting": "patients with PH-HFpEF", "value": "worse clinical outcomes"},
      {"measurement": "six minute walk test or echocardiographic evaluation of pulmonary hypertension", "setting": "patients with PH-HFpEF", "value": "no improvements"}
    ]},
    {"smiles": "OC[C@H]1O[C@@H](c2ccc(Cl)c(Cc3ccc(O[C@H]4CCOC4)cc3)c2)[C@H](O)[C@@H](O)[C@@H]1O", "note": "[empagliflozin]", "values": [
      {"measurement": "change in exercise capacity as measured by 6MWD", "setting": "[5]", "value": "did not demonstrate a material change"}
    ]},
    {"smiles": "CCCNS(=O)(=O)Nc1ncnc(OCCOc2ncc(Br)cn2)c1-c1ccc(Br)cc1", "note": "[macitentan]", "values": [
      {"measurement": "hemodynamic parameters (pulmonary vascular resistance, mean pulmonary arterial pressure, pulmonary artery wedge pressure)", "setting": "[6]", "value": "no change"}
    ]},
    {"smiles": "COC(=O)N(C)c1c(N)nc(-c2nn(Cc3ccccc3F)c3ncccc23)nc1N", "note": "[riociguat]", "values": [
      {"measurement": "mean pulmonary arterial pressure (primary outcome)", "setting": "PH-HFpEF patients [7]", "value": "primary outcome was not achieved"}
    ]},
    {"smiles": "CCCc1nn(C)c2c(=O)[nH]c(-c3cc(S(=O)(=O)N4CCN(C)CC4)ccc3OCC)nc12", "note": "[sildenafil]", "values": [
      {"measurement": "six-minute walk time, clinical status, or quality of life", "setting": "patients with HFpEF", "value": "failed to improve"},
      {"measurement": "change in mPAP", "setting": "PH-HFpEF patients [8]", "value": "no change"}
    ]},
    {"smiles": "O=NO", "note": "[sodium nitrite]", "values": [
      {"measurement": "peak oxygen consumption during cardiopulmonary exercise (primary endpoint) and secondary endpoints", "setting": "HFpEF patients [9]", "value": "unable to demonstrate any improvement"}
    ]},
    {"smiles": "COC(=O)Nc1c(N)nc(-c2nn(Cc3ccccc3F)c3ncc(F)cc23)nc1N", "note": "[vericiguat]", "values": [
      {"measurement": "primary endpoints", "setting": "HFpEF patients [10]", "value": "no significant changes"}
    ]}
  ]
}
